# Test results as given in US20250108038A1 (priority 2023, published 2025).
# Several values for one entry are separate records, joined by “and”; a condition that tells them apart may be missing. Equal values may be shown once. Entries after “also recorded” stand apart in the source; their conditions may differ. Read-outs that look alike come from different tables or passages of the source.
# Columns and labels:
# [1] = Stability of test articles at different pH values (SGF, SIF, PBS); format: physicochemical; conditions: 0.1 mM, 37° C., 0-120 min
# Description: FIG. 1A. […] (final concentration 0.1 mM) and the mixture was incubated at 37° C. for 120 min. total. […] Values represent mean+SEM of n=3 separate experiments.
# FIG. 1B. Stability of Compound I-4 in 3 different fluid matrices modeling 3 different body fluids: SGF (gastric, pH 2.0), SIF (upper intestinal, pH 6.0), and PBS (systemic fluid, pH 7.4). […] (final concentration 0.1 mM) and the mixture was incubated at 37° C. for 120 min. total. […] Values represent mean+SEM of n=3 separate experiments.
# 10 mM stock solutions of test articles were prepared in DMSO. From this stock solution, a single concentration in a 10 μL aliquot was added to three fluid matrices: SGF at pH 2.0 (gastric), SIF at pH 6.0 (upper intestine), and PBS at pH 7.4 (systemic fluid). The final volume was 1 mL (0.1 mM).
# LC-MS/MS analysis of test articles was performed on a Waters Acquity UPLC system in-line with a Waters TQ-S triple quadrupole mass spectrometer via an electrospray interface.
# UPLC separation of samples was performed on a Waters BEH Phenyl 2.1×50 column at 40 C. Mobile phase was 0.1% formic acid in water for mobile phase A and 0.1% formic acid in acetonitrile as mobile phase B. Gradient elution was 1% B initial, 65% B to 95% B at 2 minutes, 95% B at 4 minutes, and 1% B at 4.1 minutes. Flow rate was 0.4 mL/min and 5 μL of samples was injected.
# human gut microbiota = assay: Stability in human gut microbiota; conditions: human fecal matter, 37° C., 0-120 min
# Description: FIG. 7A. […] Gut microbiota from rat and human sources were extracted and purified in PBS at pH 6.0 or 7.4. A stock solution of 10 mM was prepared and a 10 μL aliquot was added to extracted microorganisms at 0 min. […] Values represent mean+SEM of n=3 separate experiments.
# FIG. 7B. […] Gut microbiota from rat and human sources were extracted and purified in PBS at pH 6.0 or 7.4. A stock solution of 10 mM was prepared and a 10 μL aliquot was added to extracted microorganisms at 0 min. […] Values represent mean+SEM of n=3 separate experiments.
# Rat fecal material was obtained and weighed. One capsule of the raw probiotics was crushed and weighed prior to use. The weighed samples were then solubilized in PBS at pH 6.0 and 7.4 to extract microorganisms. The samples were centrifuged at 18,000×g for 10 min. to remove particulates and the supernatant was used to evaluate test article stability. An aliquot (50 μL) of the test article stock solutions were added to the fecal extract (final concentration 0.5 mM) and allowed to incubate at 37° C. […] The collected sample was quenched in acetonitrile/0.1% formic acid mixture.
# [2] = Description: Twelve male Wistar Han rats were divided into 4 groups, n=3 per group.
# Dose solutions were prepared freshly on the day of study prior to dosing.
# The animals were weighed immediately prior to dosing and the dose volume was calculated individually based the obtained body weight and the nominal dose volume. […] The test articles were administered either orally by gavage, or intraperitoneally by injection. The nominal dose volume was 10 mL/kg for both compounds and both routes.
# Cage side observation was performed before and after dosing as well as at each scheduled sample collection. The observation included appearance, posture, behavior, morbidity and mortality. Abnormal findings, if any, were recorded in the study notebook and communicated with study director, veterinarian, and Supernus if necessary.
# Approximately 100 μL blood was collected at each scheduled time point from jugular veins. The actual sample collection time was within 1 min. of the nominal time for collections prior to or at 1 hour, and within 5% of the nominal time for collections post 1 hour.
# The blood samples were placed in pre-labeled micro-centrifuge tubes containing K2EDTA as anticoagulant and kept on ice, and then were processed to plasma within 30 minutes of collection by centrifugation at 4° C., 3000 g for 5 minutes, and then stored at −70±10° C. until analysis by LC-MS/MS.
# Plasma concentrations below the LLOQ prior to Tmax were set to zero, and those after Tmax were excluded from PK calculation. The nominal dose and the nominal sample collection time were used for the calculation. The values of plasma concentrations and PK parameters are reported to three significant figures. The average values of each treatment group are presented as mean±SD.
# [3] = single IP Compound I-4 3.708 mg/kg, male Wistar Han rats, individual animals
# [4] = single IP Compound I-4 3.708 mg/kg, male Wistar Han rats, mean
# [5] = single PO Compound I-4 3.708 mg/kg, male Wistar Han rats, individual animals
# [6] = single PO Compound I-4 3.708 mg/kg, male Wistar Han rats, mean
smiles,measurement,setting,value
COCCOC1(c2ccc(Cl)cc2)c2ccccc2C2=NCCN21 (stereo not drawn) [Compound I-4],Stability (% parent compound remaining),"[1]; PBS (systemic fluid, pH 7.4)",no significant change in the amount of parent compound; also recorded: stable in all three fluid matrices
same,Stability (% parent compound remaining),"[1]; SGF (gastric, pH 2.0)",no significant change in the amount of parent compound; also recorded: stable in all three fluid matrices
same,Stability (% parent compound remaining),"[1]; SIF (upper intestinal, pH 6.0)",no significant change in the amount of parent compound; also recorded: stable in all three fluid matrices
same,% parent compound remaining,"human gut microbiota; pH 6, 0.5 mM",≥ 100%
same,% parent compound remaining,"human gut microbiota; pH 7.4, 0.5 mM",decreases after 10 min. and reached a steady-state until 120 min; also recorded: slightly unstable
same,plasma concentration of Compound I-4,"[2]; 0.500 h, single IP Compound I-4 3.708 mg/kg, male Wistar Han rats, individual animals",90.3 ng/mL and 48.4 ng/mL and 115 ng/mL
same,plasma concentration of Compound I-4,"[2]; 0.500 h, single IP Compound I-4 3.708 mg/kg, male Wistar Han rats, mean",84.6 ng/mL
same,plasma concentration of Compound I-4,"[2]; 0.500 h, single PO Compound I-4 3.708 mg/kg, male Wistar Han rats, mean",9.01 ng/mL
same,plasma concentration of Compound I-4,"[2]; 2.00 h, single IP Compound I-4 3.708 mg/kg, male Wistar Han rats, individual animals",96.7 ng/mL and 85.7 ng/mL and 119 ng/mL
same,plasma concentration of Compound I-4,"[2]; 2.00 h, single IP Compound I-4 3.708 mg/kg, male Wistar Han rats, mean",100 ng/mL
same,plasma concentration of Compound I-4,"[2]; 2.00 h, single PO Compound I-4 3.708 mg/kg, male Wistar Han rats, mean",6.06 ng/mL
same,plasma concentration of Compound I-4,"[2]; 4.00 h, single IP Compound I-4 3.708 mg/kg, male Wistar Han rats, individual animals",54.6 ng/mL and 98.6 ng/mL and 61.1 ng/mL
same,plasma concentration of Compound I-4,"[2]; 4.00 h, single IP Compound I-4 3.708 mg/kg, male Wistar Han rats, mean",71.4 ng/mL
same,plasma concentration of Compound I-4,"[2]; 4.00 h, single PO Compound I-4 3.708 mg/kg, male Wistar Han rats, mean",2.75 ng/mL
same,plasma concentration of Compound I-4,"[2]; 8.00 h, single IP Compound I-4 3.708 mg/kg, male Wistar Han rats, mean",31.7 ng/mL
same,plasma concentration of Compound I-4,"[2]; 8.00 h, single PO Compound I-4 3.708 mg/kg, male Wistar Han rats, individual animals",1.40 ng/mL and 1.11 ng/mL and 1.53 ng/mL
same,plasma concentration of Compound I-4,"[2]; 8.00 h, single PO Compound I-4 3.708 mg/kg, male Wistar Han rats, mean",1.35 ng/mL
same,plasma concentration of Compound I-4,"[2]; 24.0 h, single IP Compound I-4 3.708 mg/kg, male Wistar Han rats, individual animals",BQL
same,plasma concentration of Compound I-4,"[2]; 24.0 h, single PO Compound I-4 3.708 mg/kg, male Wistar Han rats, individual animals",BQL
same,plasma concentration of Compound I-4,"[2]; […] h, single IP Compound I-4 3.708 mg/kg, male Wistar Han rats, mean",95.5 ng/mL
same,plasma concentration of Compound I-4,"[2]; […] h, single PO Compound I-4 3.708 mg/kg, male Wistar Han rats, mean",6.98 ng/mL
same,Clinical observation (tolerability),"[2]; male Wistar Han rats, PO and IP, administered dosages",well tolerated
same,T1/2 of the administered compound,"[2]; rat, in vivo, ip",2.51 h
same,AUC0-inf of Compound I-4,[2]; [3],567 ng·h/mL and 597 ng·h/mL
same,AUC0-last of Compound I-4,[2]; [3],473 ng·h/mL and 599 ng·h/mL and 546 ng·h/mL
same,Cmax of Compound I-4,[2]; [3],120 ng/mL and 98.6 ng/mL and 140 ng/mL
same,MRT0-inf of Compound I-4,[2]; [3],4.58 h and 3.48 h
same,MRT0-last of Compound I-4,[2]; [3],3.06 h and 4.10 h and 2.77 h
same,T1/2 of Compound I-4,[2]; [3],2.90 h and 2.12 h
same,Tlast of Compound I-4,[2]; [3],8.00 h
same,AUC0-inf of Compound I-4,[2]; [4],582 ng·h/mL
same,AUC0-last of Compound I-4,[2]; [4],539 ng·h/mL
same,Cmax of Compound I-4,[2]; [4],120 ng/mL
same,MRT0-inf of Compound I-4,[2]; [4],4.03 h
same,MRT0-last of Compound I-4,[2]; [4],3.31 h
same,T1/2 of Compound I-4,[2]; [4],2.51 h
same,Tlast of Compound I-4,[2]; [4],8.00 h
same,Tmax of Compound I-4,[2]; [4],1.50 h
same,AUC0-inf of Compound I-4,[2]; [5],56.4 ng·h/mL
same,MRT0-inf of Compound I-4,[2]; [5],2.61 h
same,MRT0-last of Compound I-4,[2]; [5],3.86 h and 2.20 h and 4.46 h
same,T1/2 of Compound I-4,[2]; [5],1.74 h
same,Tlast of Compound I-4,[2]; [5],8.00 h
same,AUC0-last of Compound I-4,[2]; [6],25.2 ng·h/mL
same,Cmax of Compound I-4,[2]; [6],9.18 ng/mL
same,MRT0-last of Compound I-4,[2]; [6],3.51 h
same,Tlast of Compound I-4,[2]; [6],8.00 h
same,Tmax of Compound I-4,[2]; [6],1.67 h
